{"source": "patent US20240408068A1", "about": "“Helicase Primase Inhibitors For Treating Cancer In A Combination Therapy With Oncolytic Viruses” (priority 2018, published 2024)", "key": {"HSV-1 [1]": {"system": "HSV-1", "test": "Survival of mice in first oHSV experiment", "format": "in vivo, Balbc/j mice", "details": "high dose HSV group subsequently treated with compound", "protocol": "Pharmacological animal groups (8 animal per group, 64 animals in total) were organized as such: • 1. Control virus-untreated group: test compound vehicle (200 μL, 5% DMSO; 0.5% hydroxypropylmethylcellulose (HPMC) in PBS) oral gavage (20 gauge needle standard suspension applicator), once a day, for 10 days and starting 72 h after virus injection for the other groups. • 2. Control virus vehicle-treated group: 50 μL of virus vehicle, intratumoral injection when tumors reached an average volume of app. 40 mm^3, with test compound vehicle, oral gavage, once a day, for 10 days and starting 72 h after vehicle virus injection. • 3. HSV-1 (quantity 1; 5×10^6 pfu)-treated group: 50 μL of HSV-1 (5×10^6), intratumoral injection when tumors reached an average volume of app. […] HSV-1 (quantity 2; 1×10^8 pfu)-treated group: 100 μL of HSV-1 (1×10^8) intratumoral injection when tumors reached an average volume of app. […] HSV-1 (quantity 1; 5×10^6 pfu)-test compound-treated group: 50 μL of HSV-1 (5×10^6), intratumoral injection when tumors reached an average volume of app. […] HSV-1 (quantity 2; 1×10^8 pfu)-test compound-treated group: 100 μL of HSV-1 (1×10^8), intratumoral injection when tumors reached an average volume of app. […]\nAs previously mentioned, tumor volume and body weight of the animals were measured and recorded three times per week. […]"}, "HSV-1 [2]": {"system": "HSV-1", "test": "In vitro activity, HSV-1 infected Vero cells", "format": "cell-based", "details": "Human alphaherpesvirus 1, Vero", "protocol": "The in vitro activity of the new compounds was measured as described in WO2017/174640 and in WO2019/068817."}, "[3]": {"details": "in vivo; cited from earlier work"}}, "data": [{"smiles": "Cc1nc(N(C)C(=O)Cc2ccc(-c3cc(F)ccc3F)cc2)sc1[S@@](C)(=N)=O", "note": "[Example 7(−), (−)-(S)-2-(2′,5′-Difluoro-[1,1′-biphenyl]-4-yl)-N-methyl-N-(4-methyl-5-(S-methylsulfonimidoyl)thiazol-2-yl)acetamide]", "values": [{"measurement": "rescue of mice from virus-induced death", "setting": "HSV-1 [1]", "value": "the mice can be rescued"}, {"measurement": "IC50", "setting": "HSV-1 [2]", "value": "10 to 50", "unit": "nM"}, {"measurement": "ED50 in animal models", "setting": "[3]", "value": "lowest ED50 in animal models reported so far"}]}]}
